According to patent publication US7807669B2, “Biaromatic compounds which activate PPARγ type receptors and cosmetic/pharmaceutical compositions comprised thereof” (Galderma Research & Development, priority 2002, dated 2010):

Experiments:
Type in all cases: cell-based
PPARγ = biological target: T1, PPARγ (Homo sapiens, UniProt P37231); experiment: Crossed-curve PPAR transactivation assay (PPARγ); conditions: HeLN cells stably transfected with ERE-βGlob-Luc-SV-Neo and Gal-hPPARγ; crossed curves against reference agonist, Schild regression; n.a. means not active; read-out: PPAR gamma Kd app
T1 construct: The reporter is ERE-βGlob-Luc-SV-Neo
T1 sequence (P37231 238-505 limits assumed): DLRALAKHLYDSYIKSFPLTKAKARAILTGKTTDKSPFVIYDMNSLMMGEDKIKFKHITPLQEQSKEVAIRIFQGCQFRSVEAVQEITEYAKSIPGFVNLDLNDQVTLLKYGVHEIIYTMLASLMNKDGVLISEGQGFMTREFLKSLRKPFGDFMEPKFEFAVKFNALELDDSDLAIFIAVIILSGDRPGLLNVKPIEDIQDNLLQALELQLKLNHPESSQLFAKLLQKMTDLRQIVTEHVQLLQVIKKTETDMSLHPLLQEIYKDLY
Method: (§1) Activation of the receptors by an agonist (activator) in HeLN cells leads to the expression of a reporter gene, luciferase, which, in the presence of a substrate, generates light. The modulation of the receptors is measured by quantifying the luminescence produced after incubation of the cells in the presence of a reference agonist. The ligands will displace the agonist from its site. The measurement of the activity is performed by quantifying the light produced. This measurement makes it possible to determine the modulatory activity of the compounds according to the invention by determining the constant that is the affinity of the molecule for the receptor. Since this value can fluctuate depending on the basal activity and the expression of the receptor, it is referred to as Kd apparent (KdApp in nM).
(§2) To determine this constant, “crossed curves” for the test product, against a reference agonist, are prepared using a 96-well plate: 10 concentrations of the test product plus a concentration 0 are arranged in a line, and 7 concentrations of the agonist plus a concentration 0 are arranged in a column. This is 88 measurement points for 1 product and 1 receptor. The remaining 8 wells are used for repeatability controls.
(§3) Measurements are also taken for total agonist controls with the same products.
(§4) The HeLN cell lines used are stable transfectants containing the plasmids ERE-βGlob-Luc-SV-Neo (reporter gene) and PPAR (α, δ, γ) Gal-hPPAR. These cells are seeded in 96-well plates at a rate of 10 000 cells per well in 100 μl of DMEM medium without phenol red and supplemented with 10% of defatted calf serum. The plates are then incubated for 16 hours at 37° C. and 7% CO2.
(§5) The various dilutions of the test products and of the reference ligand are added at a rate of 5 μl per well. The plates are then incubated for 18 hours at 37° C. and 7% CO2. The culture medium is removed by turning over and 100 μl of a 1:1 PBS/luciferin mixture are added to each well. After 5 minutes, the plates are read using the luminescence reader.

PPARα = biological target: T2, PPARα (Homo sapiens, UniProt Q07869); experiment: Crossed-curve PPAR transactivation assay (PPARα); conditions: HeLN cells stably transfected with ERE-βGlob-Luc-SV-Neo and Gal-hPPARα; crossed curves against reference agonist, Schild regression; n.a. means not active; read-out: PPAR alpha Kd app
T2 construct: The reporter is ERE-βGlob-Luc-SV-Neo
T2 sequence (Q07869 239-468 limits assumed): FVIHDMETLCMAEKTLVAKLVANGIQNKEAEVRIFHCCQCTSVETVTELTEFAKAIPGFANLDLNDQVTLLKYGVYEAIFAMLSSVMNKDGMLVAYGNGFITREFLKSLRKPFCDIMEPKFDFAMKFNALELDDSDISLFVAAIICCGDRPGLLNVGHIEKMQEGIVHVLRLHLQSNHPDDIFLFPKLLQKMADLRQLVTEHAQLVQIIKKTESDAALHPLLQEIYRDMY
Method: as §1, §2, §3, §4, §5

PPARδ = biological target: T3, PPARδ (Homo sapiens, UniProt Q03181); experiment: Crossed-curve PPAR transactivation assay (PPARδ); conditions: HeLN cells stably transfected with ERE-βGlob-Luc-SV-Neo and Gal-hPPARδ; crossed curves against reference agonist, Schild regression; n.a. means not active; read-out: PPAR delta Kd app
T3 construct: The reporter is ERE-βGlob-Luc-SV-Neo
T3 sequence (Q03181 211-441 limits assumed): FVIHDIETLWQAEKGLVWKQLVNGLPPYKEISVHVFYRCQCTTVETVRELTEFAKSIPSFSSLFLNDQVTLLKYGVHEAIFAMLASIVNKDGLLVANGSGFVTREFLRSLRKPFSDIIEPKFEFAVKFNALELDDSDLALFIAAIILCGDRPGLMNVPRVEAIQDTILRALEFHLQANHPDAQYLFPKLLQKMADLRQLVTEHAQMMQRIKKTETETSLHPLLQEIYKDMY
Method: as §1
To determine this constant, “crossed curves” for the test product, against a reference agonist, are prepared using a 96-well plate: 10 concentrations of the test product plus a concentration 0 are arranged in a line, and 7 concentrations of the agonist plus a concentration 0 are arranged in a column. This is 88 measurement points for 1 product and 1 receptor. […]
The various dilutions of the test products and of the reference ligand are added at a rate of 5 μl per well. […] After 5 minutes, the plates are read using the luminescence reader.

Kd (PPARγ)	Kd (PPARα)	Kd (PPARδ)	SMILES
8 nM			CCCCCCCNC(=O)N(C)c1cccc(-c2ccc(C[C@H](Nc3ccccc3C(=O)c3ccccc3)C(=O)N(Cc3ccccc3)Cc3ccccc3)cc2)c1 [Example 13, (S)-2-(2-benzoylphenylamino)-N,N-dibenzyl-3-[3′-(3-heptyl-1-methylureido)biphenyl-4-yl]propionamide]
60 nM			CCCCCCCNC(=O)N(C)c1cccc(-c2ccc(C[C@H](Nc3ccccc3C(=O)c3ccccc3)C(=O)NCc3ccccn3)cc2)c1 [Example 18, (S)-2-(2-benzoylphenylamino)-3-[3′-(3-heptyl-1-methylureido)biphenyl-4-yl]-N-pyridin-2-ylmethylpropionamide]
30 nM			CCCCCCCNC(=O)N(C)c1cccc(-c2ccc(C[C@H](Nc3ccccc3C(=O)c3ccccc3)C(=O)N(C)Cc3ccccc3)cc2)c1 [Example 20, (S)-2-(2-benzoylphenylamino)-N-benzyl-3-[3′-(3-heptyl-1-methylureido)biphenyl-4-yl]-N-methylpropionamide]
500 nM	2000 nM		CN(Cc1cccc(-c2ccc(C[C@H](Nc3ccccc3C(=O)c3ccccc3)C(=O)O)cc2)c1)C(=O)c1ccccc1 [Example 29, (S)-3-{3′-[(benzoylmethylamino)methyl]biphenyl-4-yl}-2-(2-benzoylphenylamino)propionic acid]
30 nM			CCCCCCCNC(=O)N(C)c1cccc(-c2ccc(C[C@H](Nc3ccccc3C(=O)c3ccccc3)C(=O)N3CCN(C)CC3)cc2)c1 [Example 16, (S)-1-{4′-[2-(2-benzoylphenylamino)-3-(4-methylpiperazin-1-yl)-3-oxopropyl]biphenyl-3-yl}-3-heptyl-1-methylurea]
15 nM	4000 nM		CCCCCCCNC(=O)N(C)c1cccc(-c2ccc(C[C@H](Nc3ccccc3C(=O)c3ccccc3)C(=O)N(C)CCc3ccccc3)cc2)c1 [Example 27, (S)-2-(2-benzoylphenylamino)-3-[3′-(3-heptyl-1-methylureido)biphenyl-4-yl]-N-methyl-N-phenethylpropionamide]
30 nM	2000 nM	500 nM	CCCCCCCNC(=O)N(C)c1cccc(-c2ccc(C[C@H](Nc3ccccc3C(=O)c3ccccc3)C(=O)NCCCCC)cc2)c1 [Example 8, (S)-2-(2-benzoylphenylamino)-3-[3′-(3-heptyl-1-methylureido)biphenyl-4-yl]-N-pentylpropionamide]
30 nM	2000 nM		CCCCCCCNC(=O)N(C)c1cccc(-c2ccc(C[C@H](Nc3ccccc3C(=O)c3ccccc3)C(=O)N3CCC(C)CC3)cc2)c1 [Example 9, (S)-1-{4′-[2-(2-benzoylphenylamino)-3-(4-methylpiperid-1-yl)-3-oxopropyl]biphenyl-3-yl}-3-heptyl-1-methylurea]
60 nM			CCCCCCCNC(=O)N(C)c1cccc(-c2ccc(C[C@H](Nc3ccccc3C(=O)c3ccccc3)C(=O)NCCN(C)C)cc2)c1 [Example 26, (S)-2-(2-benzoylphenylamino)-N-(2-dimethylaminoethyl)-3-[3′-(3-heptyl-1-methylureido)biphenyl-4-yl]propionamide]
30 nM			CCCCCCCNC(=O)N(C)c1cccc(-c2ccc(C[C@H](Nc3ccccc3C(=O)c3ccccc3)C(=O)OCCCC)cc2)c1 [Example 39, butyl (S)-2-(2-benzoylphenylamino)-3-[3′-(3-heptyl-1-methylureido)biphenyl-4-yl]propionate]
60 nM	2000 nM		CCCCCCCNC(=O)N(C)c1cccc(-c2ccc(C[C@H](Nc3ccccc3C(=O)c3ccccc3)C(=O)NCCNC(C)=O)cc2)c1 [Example 10, (S)—N-(2-acetylaminoethyl)-2-(2-benzoylphenylamino)-3-[3′-(3-heptyl-1-methylureido)biphenyl-4-yl]propionamide]
4 nM			CN(C(=O)Nc1ccc2ccccc2c1)c1cccc(-c2ccc(C[C@H](Nc3ccccc3C(=O)c3ccccc3)C(=O)O)cc2)c1 [Example 6, (S)-2-(2-benzoylphenylamino)-3-[3′-(1-methyl-3-naphthalen-2-ylureido)biphenyl-4-yl]propionic acid]
30 nM			CCCCCCCNC(=O)N(C)c1cccc(-c2ccc(C[C@H](Nc3ccccc3C(=O)c3ccccc3)c3nnc(CCC)o3)cc2)c1 [Example 3, (S)-1-{4′-[2-(2-benzoylphenylamino)-2-(5-propyl[1,3,4]oxadiazol-2-yl)ethyl]biphenyl-3-yl}-3-heptyl-1-methylurea]
15 nM			CC(=CC(=O)c1ccccc1)N[C@@H](Cc1ccc(-c2cccc(CN(C)C(=O)c3ccccc3)c2)cc1)C(=O)O [Example 31, (S)-3-{3′-[(benzoylmethylamino)methyl]biphenyl-4-yl}-2-(1-methyl-3-oxo-3-phenylpropenylamino)propionic acid]
